Results from patent publication US11713335B2, “Aminocoumarin compounds and methods of their use” (President and Fellows of Harvard College, priority 2018, dated 2023).
Values after ≈ are worked out from the molar mass of the structure shown. Where a name gives a salt, the structure may show the parent alone. Read-outs that look alike come from different tables or passages of the source.

Tests used:
WT E. coli = assay: Minimal inhibitory concentration in wild-type E. coli; assay type: cell-based, Escherichia coli; conditions: read-out: MIC (μM) in WT E. coli
Protocol: General Procedure for Determination of Minimal Inhibitory Concentrations
Overnight cultures (5 mL) of bacterial strains were grown in LB media or TSA media (for S. aureus) at 37° C. and with shaking at 220 rpm until saturation. The overnight culture was diluted serially 1:100 (50 μL in 5 mL sterile media) and then 1:100 (250 μL in 25 mL sterile media). The 25 mL of diluted culture was then dispensed to a sterile 96 well plate (Corning #3370). 198 μL of culture were dispensed into row A and 100 μL of this culture were dispensed into rows B-H. Aminocoumarin compound (DMSO stock) were added to the first row and then the row was mixed by pipetting. 100 μL of culture from row A were transferred to row B and the serial dilution continued until the final 100 μL from row H were discarded. The plate was incubated without shaking in a 37° C. for 16 hours and then read by visible light spectrophotometer (Molecular Devices) at 600 nm. The minimal inhibitory concentration (MIC) was determined as the lowest concentration of compound concentration that inhibited the growth of bacteria.

S. aureus RN4220 = assay: Minimal inhibitory concentration, S. aureus RN4220; assay type: cell-based; conditions: 16 hour minimal inhibitory concentration at 37° C., read-out: MIC (μM) S. aureus RN4220
Outline: (§1)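 Overnight cultures in LB (TSA for S. aureus) at 37 °C, diluted 1:100 twice, then exposed to twofold serial dilutions of compound from DMSO stock. Plates incubated unshaken 16 h at 37 °C and read at OD600. MIC (µM) is the lowest concentration inhibiting growth.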

S. aureus MW2 = assay: Minimal inhibitory concentration, S. aureus MW2; assay type: cell-based; conditions: read-out: MIC (μM) S. aureus MW2 (MRSA)
Outline: as §1

E. cloacae 13047 = assay: Minimal inhibitory concentration, E. cloacae 13047; assay type: cell-based; conditions: 16 hour minimal inhibitory concentration at 37° C., read-out: MIC (μM) E. cloacae 13047
Outline: as §1

A. baumannii 19606 = assay: Minimal inhibitory concentration, A. baumannii 19606; assay type: cell-based; conditions: 16 hour minimal inhibitory concentration at 37° C., read-out: MIC (μM) A. baumannii 19606
Outline: as §1

K. pneumoniae 700721 = assay: Minimal inhibitory concentration, K. pneumoniae 700721; assay type: cell-based; conditions: 16 hour minimal inhibitory concentration at 37° C., read-out: MIC (μM) K. pneumoniae 700721
Outline: as §1

E. coli MC4100 = assay: Minimal inhibitory concentration, E. coli MC4100; assay type: cell-based; conditions: 16 hour minimal inhibitory concentration at 37° C., read-out: MIC (μM) E. coli MC4100 ara+
Outline: as §1

E. coli 25922 = assay: Minimal inhibitory concentration, E. coli 25922; assay type: cell-based; conditions: 16 hour minimal inhibitory concentration at 37° C., read-out: MIC (μM) E. coli 25922
Outline: as §1

[1] = wild-type E. coli, 37° C., 16 hours
[2] = 16 hour minimal inhibitory concentration at 37° C.
[3] = Staphylococcus aureus, RN4220, 16 h
[4] = Escherichia coli, wild-type E. coli, 37° C., 16 hours

CO[C@@H]1[C@@H](OC(N)=O)[C@@H](O)[C@H](Oc2ccc3c(O)c(NC(=O)c4ccc5ccn(C)c5c4)c(=O)oc3c2C)OC1(C)C.Cl [Compound 71]
MIC (WT E. coli; [1]): >300 µM | MIC (S. aureus RN4220): 81 µM | MIC (S. aureus MW2; [2]): 41 µM | MIC (E. cloacae 13047): >100 µM | MIC (A. baumannii 19606): >50 µM | MIC (K. pneumoniae 700721): >100 µM | MIC (E. coli MC4100): >200 µM | MIC (E. coli 25922): >200 µM

CO[C@@H]1[C@@H](OC(N)=O)[C@@H](O)[C@H](Oc2ccc3c(O)c(NC(=O)c4ccc(O)c(C/C=C/C(C)=O)c4)c(=O)oc3c2C)OC1(C)C [Compound 81]
MIC (WT E. coli; Escherichia coli, 16 h): > 300 µM | MIC (S. aureus RN4220; [3]): 40 µM (≈ 25.1 µg/mL) | MIC (S. aureus MW2; Staphylococcus aureus, MRSA, 16 h): 40 µM (≈ 25.1 µg/mL) | MIC (E. cloacae 13047; Enterobacter cloacae, 13047): > 100 µM | MIC (A. baumannii 19606; Acinetobacter baumannii, 19606): > 50 µM | MIC (K. pneumoniae 700721; Klebsiella pneumoniae, 700721): > 100 µM | MIC (E. coli MC4100; Escherichia coli, MC4100): > 200 µM | MIC (E. coli 25922; Escherichia coli, 25922): > 200 µM

CO[C@@H]1[C@@H](OC(N)=O)[C@@H](O)[C@H](Oc2ccc3c(O)c(NC(=O)c4cccc(C5CCC5)c4)c(=O)oc3c2C)OC1(C)C [Compound 53]
MIC (WT E. coli; [1]): >300 µM | MIC (S. aureus RN4220): 11 µM (≈ 6.41 µg/mL) | MIC (S. aureus MW2; [2]): 11 µM (≈ 6.41 µg/mL) | MIC (E. cloacae 13047): >100 µM | MIC (A. baumannii 19606): >50 µM | MIC (K. pneumoniae 700721): >100 µM | MIC (E. coli MC4100): >200 µM | MIC (E. coli 25922): >200 µM

CO[C@@H]1[C@@H](OC(N)=O)[C@@H](O)[C@H](Oc2ccc3c(O)c(NC(=O)c4cccc5ccn(C)c45)c(=O)oc3c2C)OC1(C)C [Compound 74]
MIC (WT E. coli; [1]): >300 µM | MIC (S. aureus RN4220): >100 µM | MIC (S. aureus MW2; [2]): >100 µM | MIC (E. cloacae 13047): >100 µM | MIC (A. baumannii 19606): >50 µM | MIC (K. pneumoniae 700721): >100 µM | MIC (E. coli MC4100): >200 µM | MIC (E. coli 25922): >200 µM

COc1cccc(-c2cccc(C(=O)Nc3c(O)c4ccc(O[C@@H]5OC(C)(C)[C@H](OC)[C@@H](OC(N)=O)[C@H]5O)c(C)c4oc3=O)c2)c1 [Compound 45]
MIC (WT E. coli; [4]): 89 µM (≈ 56.5 µg/mL) | MIC (S. aureus RN4220): 5 µM (≈ 3.17 µg/mL) | MIC (S. aureus MW2; [2]): 3 µM (≈ 1.9 µg/mL) | MIC (E. cloacae 13047; Enterobacter cloacae, 13047): > 100 µM | MIC (A. baumannii 19606): >50 µM | MIC (K. pneumoniae 700721; Klebsiella pneumoniae, 700721): > 100 µM | MIC (E. coli MC4100): 89 µM (≈ 56.5 µg/mL) | MIC (E. coli 25922): 79 µM (≈ 50.1 µg/mL)

CO[C@@H]1[C@@H](OC(N)=O)[C@@H](O)[C@H](Oc2ccc3c(O)c(NC(=O)c4cccc(-c5ccc(OC(F)(F)F)cc5)c4)c(=O)oc3c2C)OC1(C)C [Compound 57]
MIC (WT E. coli; [1]): >300 µM | MIC (S. aureus RN4220): 1.45 µM (≈ 0.998 µg/mL) | MIC (S. aureus MW2; [2]): 0.91 µM (≈ 0.627 µg/mL) | MIC (E. cloacae 13047): >100 µM | MIC (A. baumannii 19606): 18 µM (≈ 12.4 µg/mL) | MIC (K. pneumoniae 700721): >100 µM | MIC (E. coli MC4100): >200 µM | MIC (E. coli 25922): >200 µM

CO[C@@H]1[C@@H](OC(N)=O)[C@@H](O)[C@H](Oc2ccc3c(O)c(NC(=O)c4ccc(O)c(CC=C(C)C)c4)c(=O)oc3c2C)OC1(C)C [Novobiocin, novobiocin, reference compound]
MIC (WT E. coli; [4]): 59 µM (≈ 36.1 µg/mL) | MIC (S. aureus RN4220; [3]): 0.2 µM (≈ 0.123 µg/mL) | MIC (S. aureus MW2; Staphylococcus aureus, MRSA, 16 h, 16 hour minimal inhibitory concentration at 37° C.): 0.25 µM (≈ 0.153 µg/mL) | MIC (E. cloacae 13047; Enterobacter cloacae, 13047): > 100 µM | MIC (A. baumannii 19606; Acinetobacter baumannii, 19606, 16 h): 1.27 µM (≈ 0.778 µg/mL) | MIC (K. pneumoniae 700721; Klebsiella pneumoniae, 700721): > 100 µM | MIC (E. coli MC4100; Escherichia coli, MC4100, 16 h): 59 µM (≈ 36.1 µg/mL) | MIC (E. coli 25922; Escherichia coli, 25922, 16 h): 40 µM (≈ 24.5 µg/mL)

CCc1ccc(-c2cccc(C(=O)Nc3c(O)c4ccc(O[C@@H]5OC(C)(C)[C@H](OC)[C@@H](OC(N)=O)[C@H]5O)c(C)c4oc3=O)c2)cc1 [Compound 54]
MIC (WT E. coli; [1]): 40 µM (≈ 25.3 µg/mL) | MIC (S. aureus RN4220): 0.99 µM (≈ 0.626 µg/mL) | MIC (S. aureus MW2; [2]): 0.99 µM (≈ 0.626 µg/mL) | MIC (E. cloacae 13047): >100 µM | MIC (A. baumannii 19606): 20 µM (≈ 12.7 µg/mL) | MIC (K. pneumoniae 700721): 79 µM (≈ 50 µg/mL) | MIC (E. coli MC4100): 40 µM (≈ 25.3 µg/mL) | MIC (E. coli 25922): 79 µM (≈ 50 µg/mL)

CO[C@@H]1[C@@H](OC(N)=O)[C@@H](O)[C@H](Oc2ccc3c(O)c(NC(=O)c4cccc(-c5cccc(C(F)(F)F)c5)c4)c(=O)oc3c2C)OC1(C)C [Compound 56]
MIC (WT E. coli; [1]): >300 µM | MIC (S. aureus RN4220): 0.74 µM (≈ 0.498 µg/mL) | MIC (S. aureus MW2; [2]): 0.46 µM (≈ 0.309 µg/mL) | MIC (E. cloacae 13047): >100 µM | MIC (A. baumannii 19606): 37 µM (≈ 24.9 µg/mL) | MIC (K. pneumoniae 700721): >100 µM | MIC (E. coli MC4100): >200 µM | MIC (E. coli 25922): >200 µM

CO[C@@H]1[C@@H](OC(N)=O)[C@@H](O)[C@H](Oc2ccc3c(O)c(NC(=O)c4cccc(C5CCCCC5)c4)c(=O)oc3c2C)OC1(C)C [Compound 62]
MIC (WT E. coli; [1]): 59 µM (≈ 36 µg/mL) | MIC (S. aureus RN4220): 5 µM (≈ 3.05 µg/mL) | MIC (S. aureus MW2; [2]): 3 µM (≈ 1.83 µg/mL) | MIC (E. cloacae 13047): >100 µM | MIC (A. baumannii 19606): >50 µM | MIC (K. pneumoniae 700721): 82 µM (≈ 50.1 µg/mL) | MIC (E. coli MC4100): 59 µM (≈ 36 µg/mL) | MIC (E. coli 25922): 82 µM (≈ 50.1 µg/mL)

CO[C@@H]1[C@@H](OC(N)=O)[C@@H](O)[C@H](Oc2ccc3c(O)c(NC(=O)Cc4ccccc4)c(=O)oc3c2C)OC1(C)C [Compound 42]
MIC (WT E. coli; [1]): >300 µM | MIC (S. aureus RN4220): >100 µM | MIC (S. aureus MW2; [2]): >100 µM | MIC (E. cloacae 13047): >100 µM | MIC (A. baumannii 19606): >50 µM | MIC (K. pneumoniae 700721): >100 µM | MIC (E. coli MC4100): >200 µM | MIC (E. coli 25922): >200 µM

CO[C@@H]1[C@@H](OC(N)=O)[C@@H](O)[C@H](Oc2ccc3c(O)c(NC(=O)c4cc(-c5ccc(F)cc5)cc(O)c4O)c(=O)oc3c2C)OC1(C)C [Compound 97]
MIC (WT E. coli; [1]): >300 µM | MIC (S. aureus RN4220): 76 µM (≈ 49.7 µg/mL) | MIC (S. aureus MW2; [2]): 38 µM (≈ 24.9 µg/mL) | MIC (E. cloacae 13047): >100 µM | MIC (A. baumannii 19606): >50 µM | MIC (K. pneumoniae 700721): >100 µM | MIC (E. coli MC4100): >200 µM | MIC (E. coli 25922): 153 µM (≈ 100 µg/mL)

CO[C@@H]1[C@@H](OC(N)=O)[C@@H](O)[C@H](Oc2ccc3c(O)c(NC(=O)c4ccc(O)c(CCC(N)=O)c4)c(=O)oc3c2C)OC1(C)C [Compound 91]
MIC (WT E. coli; [1]): >300 µM | MIC (S. aureus RN4220): >100 µM | MIC (S. aureus MW2; [2]): >100 µM | MIC (E. cloacae 13047): >100 µM | MIC (A. baumannii 19606): >50 µM | MIC (K. pneumoniae 700721): >100 µM | MIC (E. coli MC4100): >200 µM | MIC (E. coli 25922): >200 µM

COC1[C@H](OC(N)=O)C(O)[C@H](Oc2ccc3c(O)c(N)c(=O)oc3c2C)OC1(C)C (stereo partly drawn) [Compound 19, novenamine hydrochloride]
MIC (WT E. coli; [4]): > 300 µM
